Assay [1] relates to IL-23-stimulated STAT-dependent luciferase reporter in Kit225 T cells. The assay can be described thus: Kit225 T cell assay, IL-23 stimulated STAT-dependent luciferase reporter. The format is cell-based, human. To be noted: Kit225 T cells, 20 ng/mL human recombinant IL-23, 5-6 hours, luciferase; read-out: IL23 (Kit225 T Cell Inhibition Data). In outline:
(§1)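 Kit225 T cells carrying a stably integrated STAT-luciferase reporter, in RPMI with 10% heat-inactivated FBS, were stimulated with 20 ng/mL IL-23 or 200 U/mL IFNα for 5-6 h. Readout was luminescence from the luciferase reporter.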
For orientation: In a reporter assay the amount or activity of a reporter protein is the signal.

In assay [2] the test system is IFNα-stimulated STAT-dependent luciferase reporter in Kit225 T cells. The assay can be described thus: Kit225 T cell assay, IFNα stimulated STAT-dependent luciferase reporter. It is filed as cell-based, human. To be noted: Kit225 T cells, 200 U/mL human recombinant IFNα, 5-6 hours, luciferase; read-out: IFNα (Kit225 T Cell Inhibition Data). In outline:
as §1

For `CNC(=O)c1cnc(Nc2ccc(F)cn2)cc1Nc1ccc(CCO)cc1` [Example 191], the IC50 was 3070 nM in assay [1] and 3580 nM in assay [2].
For `CNC(=O)c1cnc(Nc2ccc(F)cn2)cc1Nc1ccc(OC)cc1OC` [Example 192] the same measures were 565 nM and 540 nM.
For `CNC(=O)c1cnc(Nc2ccc(F)cn2)cc1Nc1ccc(C)cc1` [Example 193], in that order: 3670 nM and 3200 nM.
For `CNC(=O)c1cnc(Nc2ccc(F)cn2)cc1Nc1ccc(OC)cc1` [Example 195] the same measures were 3130 nM and 3520 nM.
Take `CNC(=O)c1cnc(Nc2ccc(F)cn2)cc1Nc1ccc(F)cc1` [Example 196]: the figures for the IC50 in assay [1] and in assay [2] were 4380 nM and 6970 nM, respectively.
Consider `CNC(=O)c1cnc(Nc2ccc(F)cn2)cc1Nc1cccc(C)c1` [Example 197], for which the IC50 turned out to be 11900 nM in assay [1] and 5830 nM in assay [2].
For `CNC(=O)c1cnc(Nc2ccc(F)cn2)cc1Nc1ccc(C2CC2)cc1` [Example 198], in that order: 4530 nM and 5300 nM.
For `CNC(=O)c1cnc(Nc2ccc(F)cn2)cc1Nc1cc(F)ccc1OC` [Example 199], in that order: 897 nM and 660 nM.
For `CNC(=O)c1cnc(Nc2ccc(F)cn2)cc1Nc1ccc(C(=O)N2CCCC2)cc1` [Example 200], in that order: 904 nM and 1300 nM.
Take `CNC(=O)c1cnc(Nc2ccc(F)cn2)cc1Nc1ccc(S(C)(=O)=O)cc1` [Example 201]: the IC50 in assay [1] came out at 2670 nM; in assay [2], 6970 nM.
For `CNC(=O)c1cnc(Nc2ccc(F)cn2)cc1Nc1ccc(F)c(F)c1` [Example 204] the same measures were 9320 nM and 8130 nM.
For `CNC(=O)c1cnc(Nc2ccc(F)cn2)cc1Nc1ccc(F)cc1SC` [Example 207] the same measures were 3300 nM and 2040 nM.
Regarding `CNC(=O)c1cnc(Nc2ccc(F)cn2)cc1Nc1ccccc1O` [Example 208], the IC50 is 1850 nM in assay [1] and 2410 nM in assay [2].
As for `CNC(=O)c1cnc(Nc2ccc(F)cn2)cc1Nc1ccccc1OC(F)(F)F` [Example 209], the IC50 in assay [1] turned out to be 1580 nM; in assay [2], 1310 nM.
Take `CNC(=O)c1cnc(Nc2ccc(F)cn2)cc1Nc1ccccc1SC(F)(F)F` [Example 210]: the results for the IC50 in assay [1] and in assay [2] were 1680 nM and 860 nM, respectively.
For `CNC(=O)c1cnc(Nc2ccc(F)cn2)cc1Nc1cccc2[nH]ccc12` [Example 212] the same measures were 4170 nM and 2030 nM.
Turning to `CCc1ccc(Nc2cc(Nc3ccc(N4CCOCC4)cn3)ncc2C(=O)NC)cc1` [Example 213], the IC50 in assay [1] was found to be 1870 nM; in assay [2] it was 1310 nM.
Take `CNC(=O)c1cnc(Nc2ccc(N3CCOCC3)cn2)cc1Nc1ccccc1F` [Example 214]: the results for the IC50 in assay [1] and in assay [2] were 2930 nM and 2010 nM, respectively.
For `CCc1cccc(Nc2cc(Nc3ccc(N4CCOCC4)cn3)ncc2C(=O)NC)c1` [Example 215], in that order: 4930 nM and 4330 nM.
For `CNC(=O)c1cnc(Nc2ccc(N3CCOCC3)cn2)cc1Nc1ccccc1OC` [Example 216] the same measures were 152 nM and 120 nM.
For `CNC(=O)c1cnc(Nc2ccc(N3CCOCC3)cn2)cc1Nc1ccc(F)cc1OC` [Example 218] the same measures were 802 nM and 260 nM.
On to `CNC(=O)c1cnc(Nc2ccc(N3CCOCC3)cn2)cc1Nc1c(F)cccc1OC` [Example 219], for which the IC50 in assay [1] was determined as 5090 nM; in assay [2] it was 2810 nM.
For `CNC(=O)c1cnc(Nc2ccc(N3CCOCC3)cn2)cc1Nc1ccc(OC)cc1OC` [Example 220], in that order: 492 nM and 210 nM.
For `CNC(=O)c1cnc(Nc2ccc(N3CCOCC3)cn2)cc1Nc1ccc(Br)cc1OC` [Example 221], in that order: 456 nM and 150 nM.
For `CNC(=O)c1cnc(Nc2ccc(N3CCOCC3)cn2)cc1Nc1cc(S(C)(=O)=O)ccc1OC` [Example 222] the same measures were 8040 nM and 8390 nM.
On to `CCOc1ccccc1Nc1cc(Nc2ccc(N3CCOCC3)cn2)ncc1C(=O)NC` [Example 223], for which the IC50 in assay [1] was 386 nM; in assay [2] it was 190 nM.
For `CNC(=O)c1cnc(Nc2ccc(N3CCOCC3)cn2)cc1Nc1cccc2c1OCCO2` [Example 225], in that order: 157 nM and 90 nM.
On to `CNC(=O)c1cnc(Nc2ccc(N3CCOCC3)cn2)cc1Nc1ccc(F)cc1O` [Example 227], for which the IC50 in assay [1] amounted to 4600 nM; in assay [2] it was 3240 nM.
For `CCOc1ccc(OCC)c(Nc2cc(Nc3ccc(N4CCOCC4)cn3)ncc2C(=O)NC)c1` [Example 229], in that order: 310 nM and 260 nM.
Take `CCOc1c(F)cc(F)cc1Nc1cc(Nc2ccc(N3CCOCC3)cn2)ncc1C(=O)NC` [Example 230]: the IC50 in assay [1] came to 224 nM; in assay [2], 160 nM.
For `CNC(=O)c1cnc(Nc2ccc(F)cn2)cc1Nc1ccccc1N` [Example 231], in that order: 9180 nM and 3120 nM.
`CCOc1cc(F)ccc1Nc1cc(Nc2ccc(N3CCOCC3)cn2)ncc1C(=O)NC` [Example 232]: the IC50 was determined as 3040 nM in assay [1] and 2090 nM in assay [2].
For `CNC(=O)c1cnc(Nc2ccc(F)cn2)cc1Nc1ccc(C(N)=O)cc1OC` [Example 233], in that order: 1370 nM and 870 nM.
Turning to `CNC(=O)c1cnc(Nc2ccc(F)cn2)cc1Nc1ccc(C(N)=O)cc1C` [Example 234], the IC50 was 2800 nM in assay [1] and 1870 nM in assay [2].
For `CNC(=O)c1cnc(Nc2ccc(F)cn2)cc1Nc1ccc(C(=O)N2CCCCC2)cc1C` [Example 235] the same measures were 1420 nM and 700 nM.
For `CNC(=O)c1cnc(Nc2ccc(F)cn2)cc1Nc1ccc(C(=O)N2CCOCC2)cc1C` [Example 236], in that order: 2180 nM and 1110 nM.
For `CNC(=O)c1cnc(Nc2ccc(F)cn2)cc1Nc1ccc(C(=O)N2CCCCC2)cc1OC` [Example 239], in that order: 293 nM and 230 nM.
For the compound `CCN(CC)C(=O)c1ccc(Nc2cc(Nc3ccc(F)cn3)ncc2C(=O)NC)c(OC)c1` [Example 240], the IC50 in assay [1] worked out at 625 nM; in assay [2], 410 nM.
For `CNC(=O)c1cnc(Nc2ccc(F)cn2)cc1Nc1ccc(C(=O)N2CCOCC2)cc1OC` [Example 241], in that order: 902 nM and 500 nM.
Turning to `CNC(=O)c1cnc(Nc2ccc(F)cn2)cc1Nc1ccc(C(N)=O)cc1` [Example 242], the IC50 in assay [1] came to 1740 nM; in assay [2], 2710 nM.
For `CNC(=O)c1ccc(Nc2cc(Nc3ccc(F)cn3)ncc2C(=O)NC)cc1` [Example 243] the same measures were 4610 nM and 2110 nM.
For the compound `CNC(=O)c1cnc(Nc2ccc(F)cn2)cc1Nc1ccc(C(=O)N2CCCCC2)cc1` [Example 244], the IC50 in assay [1] turned out to be 1160 nM; in assay [2], 1260 nM.
For `CNC(=O)c1cnc(Nc2ccc(F)cn2)cc1Nc1ccc(C(=O)N2CCOCC2)cc1` [Example 245], in that order: 3260 nM and 3660 nM.
With `CCN(CC)C(=O)c1ccc(Nc2cc(Nc3ccc(F)cn3)ncc2C(=O)NC)cc1` [Example 246], the IC50 was 2380 nM in assay [1] and 1650 nM in assay [2].
For `CNC(=O)c1cnc(Nc2ccc(F)cn2)cc1Nc1ccc(C(=O)N2CCC(F)(F)C2)cc1OC` [Example 247] the same measures were 409 nM and 260 nM.
For `CNC(=O)c1cnc(Nc2ccc(F)cn2)cc1Nc1ccc(C(=O)N2CCCC2)cc1OC` [Example 248], in that order: 504 nM and 250 nM.
For `CNC(=O)c1cnc(Nc2ccc(F)cn2)cc1Nc1ccc(C(=O)NCCc2c[nH]cn2)cc1OC` [Example 249], in that order: 10500 nM and 6410 nM.
On to `CNC(=O)c1cnc(Nc2ccc(F)cn2)cc1Nc1ccc(OC)cc1C(N)=O` [Example 250], for which the IC50 is 472 nM in assay [1] and 300 nM in assay [2].
For `CNC(=O)c1cnc(Nc2ccc(F)cn2)cc1Nc1ccccc1C(=O)N(C)C` [Example 251], in that order: 1080 nM and 670 nM.
For `CNC(=O)c1cnc(Nc2ccc(F)cn2)cc1Nc1ccc(OC(F)(F)F)cc1C(N)=O` [Example 252], in that order: 1290 nM and 430 nM.
For `CNC(=O)c1ccnc(Nc2cc(Nc3ccc(Cl)cc3OC)c(C(=O)NC)cn2)c1` [Example 254], the IC50 worked out at 488 nM in assay [1] and 310 nM in assay [2].
For `CNC(=O)c1cnc(Nc2ccc(C(N)=O)cn2)cc1Nc1ccc(Cl)cc1OC` [Example 255] the same measures were 1560 nM and 710 nM.
For `CNC(=O)c1cnc(Nc2cc(C(N)=O)ccn2)cc1Nc1ccc(F)c(F)c1OC` [Example 256], in that order: 568 nM and 700 nM.
For `CNC(=O)c1ccnc(Nc2cc(Nc3ccc(F)c(F)c3OC)c(C(=O)NC)cn2)c1` [Example 257], in that order: 577 nM and 600 nM.
For the compound `CNC(=O)c1cnc(Nc2cc(C(=O)N(C)C)ccn2)cc1Nc1ccc(F)c(F)c1OC` [Example 258], the results for the IC50 in assay [1] and in assay [2] were 646 nM and 310 nM, respectively.
For `CNC(=O)c1cnc(Nc2cc(C(=O)NC3CC3)ccn2)cc1Nc1ccc(Cl)cc1OC` [Example 259], in that order: 433 nM and 200 nM.
For `CNC(=O)c1ccc(Nc2cc(Nc3ccc(Cl)cc3OC)c(C(=O)NC)cn2)nc1` [Example 260] the same measures were 2400 nM and 1760 nM.

The record behind these values is patent US9315494B2, “Alkyl-amide-substituted pyridyl compounds useful as modulators of IL-12, IL-23 and/or IFNα responses” (Bristol-Myers Squibb Company, priority 2012, dated 2016).
